“And” between values parts separate entries of the source, which are not always exact repeats. Identical values can stand only once. Inconclusive results and toxic doses are left out. Rule as the data show it: active = T/C of 150% or more; inactive = T/C below 125%.
System: L1210 leukemia ip in BDF1 mice, survival T/C
Experiment: NCI In Vivo Anticancer Drug Screen. Data for tumor model L1210 Leukemia (intraperitoneal) in B6D2F1 (BDF1) mice
Settings: endpoint: mean survival time, higher = longer survival
Summary of the method: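 Transplanted-tumor mice were given test agent; controls received vehicle only. Survival readings from the two groups were divided (treated over control).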

[1] = dose: 100.0 mg/kg/injection, schedule: Q01DX001 (ip), vehicle: saline
[2] = dose: 200.0 mg/kg/injection, schedule: Q01DX001 (ip), vehicle: saline
[3] = dose: 400.0 mg/kg/injection, schedule: Q01DX001 (ip), vehicle: saline
[4] = dose: 100.0 mg/kg/injection, schedule: Q01DX009 (ip), vehicle: saline with Tween-80
[5] = dose: 200.0 mg/kg/injection, schedule: Q01DX009 (ip), vehicle: saline with Tween-80
[6] = dose: 400.0 mg/kg/injection, schedule: Q01DX009 (ip), vehicle: saline with Tween-80

Measured: T/C

C=C(C)[C@H]1Cc2c(ccc3c2O[C@@H]2COc4cc(OC)c(OC)cc4[C@@H]2C3=O)O1
inactive: dose: 0.25 mg/kg/injection, schedule: Q01DX Z (ip), vehicle: other 95 % of control | dose: 0.5 mg/kg/injection, schedule: Q01DX Z (ip), vehicle: other 97 % of control | dose: 0.5 mg/kg/injection, schedule: Q02DX Z (ip), vehicle: water 96 % of control | dose: 0.75 mg/kg/injection, schedule: Q01DX Z (ip), vehicle: other 95 % of control | dose: 0.75 mg/kg/injection, schedule: Q02DX Z (ip), vehicle: water 101 % of control | dose: 1.0 mg/kg/injection, schedule: Q01DX Z (ip), vehicle: other 88 % of control | dose: 1.0 mg/kg/injection, schedule: Q02DX Z (ip), vehicle: water 102 % of control | dose: 2.0 mg/kg/injection, schedule: Q01DX015 (ip), vehicle: saline 97 % of control | dose: 2.0 mg/kg/injection, schedule: Q02DX Z (ip), vehicle: water 107 % of control | dose: 4.0 mg/kg/injection, schedule: Q01DX015 (ip), vehicle: saline 101 % of control | dose: 8.0 mg/kg/injection, schedule: Q01DX015 (ip), vehicle: saline 109 % of control | dose: 16.0 mg/kg/injection, schedule: Q01DX015 (ip), vehicle: saline 109 % of control

CCCCCC(CN(C)C)C(O)CCc1ccc(Cl)c(Cl)c1 (centres undefined)
inactive: dose: 25.0 mg/kg/injection, schedule: Q04DX002 (ip), vehicle: Klucel (hydroxypropylcellulose) (HPC) 93 % of control | dose: 50.0 mg/kg/injection, schedule: Q04DX002 (ip), vehicle: Klucel (hydroxypropylcellulose) (HPC) 93 % of control | dose: 100.0 mg/kg/injection, schedule: Q04DX002 (ip), vehicle: Klucel (hydroxypropylcellulose) (HPC) 104 % of control | dose: 200.0 mg/kg/injection, schedule: Q04DX002 (ip), vehicle: Klucel (hydroxypropylcellulose) (HPC) 88 % of control | dose: 400.0 mg/kg/injection, schedule: Q04DX002 (ip), vehicle: Klucel (hydroxypropylcellulose) (HPC) 117 % of control

O=C(O)C(Cc1cccs1)Cc1cccs1
inactive: dose: 50.0 mg/kg/injection, schedule: Q04DX003 (ip), vehicle: carboxymethylcellulose (CMC) 120 % of control | dose: 100.0 mg/kg/injection, schedule: Q04DX003 (ip), vehicle: carboxymethylcellulose (CMC) 104 % of control | dose: 200.0 mg/kg/injection, schedule: Q04DX003 (ip), vehicle: carboxymethylcellulose (CMC) 108 % of control

COc1ccc(/C=N/O)c(C)c1OC
inactive: [1] 98 % of control | [2] 96 % of control | [3] 96 % of control

C#CC(OC(=O)NC)(c1ccccc1)c1ccc(OC)cc1 (centres undefined)
inactive: dose: 6.25 mg/kg/injection, schedule: Q01DX009 (ip), vehicle: Klucel (hydroxypropylcellulose) (HPC) 112 % of control | dose: 11.0 mg/kg/injection, schedule: Q01DX006 (ip), vehicle: Klucel (hydroxypropylcellulose) (HPC) 120 % of control | dose: 12.5 mg/kg/injection, schedule: Q01DX009 (ip), vehicle: Klucel (hydroxypropylcellulose) (HPC) 114 % of control | dose: 25.0 mg/kg/injection, schedule: Q01DX006 (ip), vehicle: Klucel (hydroxypropylcellulose) (HPC) 115 % of control | dose: 37.0 mg/kg/injection, schedule: Q01DX006 (ip), vehicle: Klucel (hydroxypropylcellulose) (HPC) 109 % of control | dose: 50.0 mg/kg/injection, schedule: Q01DX009 (ip), vehicle: Klucel (hydroxypropylcellulose) (HPC) 119 % of control | dose: 100.0 mg/kg/injection, schedule: Q04DX003 (ip), vehicle: Klucel (hydroxypropylcellulose) (HPC) 111 % of control

CCOCc1ccc(O)c2ncccc12
inactive: dose: 264.0 mg/kg/injection, schedule: Q01DX001 (ip), vehicle: carboxymethylcellulose (CMC) 106 % of control | dose: 400.0 mg/kg/injection, schedule: Q01DX001 (ip), vehicle: carboxymethylcellulose (CMC) 107 % of control

C(=N\Nc1c2ccccc2nc2ccccc12)/c1ccc2c(c1)OCO2
inactive: [1] 89 % of control | [2] 100 % of control | [3] 89 % of control

CN1CCN(C(=O)c2ccc(Cl)c(Cl)c2)CC1
inactive: dose: 12.5 mg/kg/injection, schedule: Q01DX009 (ip), vehicle: saline with Tween-80 117 % of control | dose: 12.5 mg/kg/injection, schedule: Q04DX003 (ip), vehicle: saline 102 % of control | dose: 25.0 mg/kg/injection, schedule: Q01DX009 (ip), vehicle: saline with Tween-80 114 % of control | dose: 25.0 mg/kg/injection, schedule: Q04DX003 (ip), vehicle: saline 102 % of control | dose: 50.0 mg/kg/injection, schedule: Q01DX009 (ip), vehicle: saline with Tween-80 102 % of control and 115 % of control | dose: 50.0 mg/kg/injection, schedule: Q04DX003 (ip), vehicle: saline 108 % of control | dose: 75.0 mg/kg/injection, schedule: Q01DX009 (ip), vehicle: saline with Tween-80 115 % of control | [4] 95 % of control

O=C(Nc1ccccc1[N+](=O)[O-])c1ccccc1
inactive: [4] 111 % of control | [5] 106 % of control | [6] 106 % of control

O=C(/C=C/c1ccncc1)c1cccc2ccccc12
inactive: dose: 100.0 mg/kg/injection, schedule: Q04DX003 (ip), vehicle: saline with Tween-80 89 % of control | dose: 200.0 mg/kg/injection, schedule: Q04DX003 (ip), vehicle: saline with Tween-80 97 % of control

CCCC/C(C)=N/Nc1ccc([N+](=O)[O-])cc1[N+](=O)[O-]
inactive: dose: 12.5 mg/kg/injection, schedule: Q04DX002 (ip), vehicle: saline with Tween-80 98 % of control | dose: 25.0 mg/kg/injection, schedule: Q04DX002 (ip), vehicle: saline with Tween-80 106 % of control | dose: 50.0 mg/kg/injection, schedule: Q04DX002 (ip), vehicle: saline with Tween-80 98 % of control

COC1OC2COc3ccccc3OC2C2C1N2C(N)=S (centres undefined)
inactive: dose: 100.0 mg/kg/injection, schedule: Q04DX002 (ip), vehicle: saline 96 % of control | dose: 200.0 mg/kg/injection, schedule: Q04DX002 (ip), vehicle: saline 100 % of control | dose: 400.0 mg/kg/injection, schedule: Q04DX002 (ip), vehicle: saline 100 % of control

CCC1(C)CC(=O)NC(=O)C1
inactive: dose: 0.9 mg/kg/injection, schedule: Q01DX009 (ip), vehicle: saline 98 % of control | dose: 1.87 mg/kg/injection, schedule: Q01DX009 (ip), vehicle: saline 108 % of control | dose: 3.75 mg/kg/injection, schedule: Q01DX009 (ip), vehicle: saline 104 % of control | dose: 3.75 mg/kg/injection, schedule: Q04DX003 (ip), vehicle: saline 106 % of control | dose: 5.0 mg/kg/injection, schedule: Q04DX003 (ip), vehicle: saline with Tween-80 101 % of control | dose: 7.5 mg/kg/injection, schedule: Q01DX009 (ip), vehicle: saline 106 % of control | dose: 7.5 mg/kg/injection, schedule: Q04DX003 (ip), vehicle: saline 92 % of control | dose: 10.0 mg/kg/injection, schedule: Q04DX003 (ip), vehicle: saline with Tween-80 97 % of control | dose: 15.0 mg/kg/injection, schedule: Q01DX009 (ip), vehicle: saline 100 % of control | dose: 15.0 mg/kg/injection, schedule: Q04DX003 (ip), vehicle: saline 95 % of control

CCOC(=O)C(C#N)CCC#N (centres undefined)
inactive: [4] 113 % of control | [5] 98 % of control | [6] 104 % of control

CCN(C(=S)c1ccccc1)c1ccc(C(=O)OC)cc1
inactive: dose: 75.0 mg/kg/injection, schedule: Q04DX003 (ip), vehicle: saline 100 % of control | dose: 100.0 mg/kg/injection, schedule: Q01DX001 (ip), vehicle: Klucel (hydroxypropylcellulose) (HPC) 100 % of control | dose: 150.0 mg/kg/injection, schedule: Q04DX003 (ip), vehicle: saline 102 % of control | dose: 200.0 mg/kg/injection, schedule: Q01DX001 (ip), vehicle: Klucel (hydroxypropylcellulose) (HPC) 104 % of control | dose: 300.0 mg/kg/injection, schedule: Q04DX003 (ip), vehicle: saline 97 % of control | dose: 400.0 mg/kg/injection, schedule: Q01DX001 (ip), vehicle: Klucel (hydroxypropylcellulose) (HPC) 100 % of control

O=C(COc1ccc(Cl)cc1)c1ccccc1
inactive: [4] 99 % of control | [5] 87 % of control | [6] 100 % of control

CCCCCCC(OC(C)=O)OC(C)=O
inactive: dose: 222.0 mg/kg/injection, schedule: Q01DX Z (ip), vehicle: saline 101 % of control | dose: 333.0 mg/kg/injection, schedule: Q01DX Z (ip), vehicle: saline 103 % of control | dose: 500.0 mg/kg/injection, schedule: Q01DX Z (ip), vehicle: saline 104 % of control

— PubChem BioAssay AID248 (DTP/NCI, 2004)
